The values below come from US9693997B2, “Antiviral compounds” (priority 2013, dated 2017).

Assay in all cases: microbe, parasite or virus in culture
Experiment [1] deals with Pseudotyped HCV GT1a particles (HCVpp), entry into Huh7-high CD81 cells. In kind it is cell-based, HCV GT1a H77 strain. The conditions noted are these: Hepatitis C virus, 72 h, read-out: HCVpp GT-1a (EC50, μM).
Experiment [2] relates to pseudotyped VSV G particles (VSVpp) in Huh7-high CD81 cells. Format: cell-based, vesicular stomatitis virus. The conditions noted are these: Vesicular stomatitis virus, 72 h, read-out: VSVpp (EC50, μM).
Experiment [3] deals with Pseudotyped HCV GT1b particles (HCVpp), entry into Huh7-high CD81 cells. Format: cell-based, HCV GT1b Con1 strain. As to conditions: Hepatitis C virus, GT1B, 72 h, read-out: HCVpp GT-1b (EC50, μM).

For orientation: EC50 means the concentration that produces a half-maximal response. For `Nc1nc(Nc2cc(Cl)c(-c3ccccc3)c(Cl)c2)n[nH]1` [Compound 48, N*3*-(2,6-Dichloro-biphenyl-4-yl)-1H-[1,2,4]triazole-3,5-diamine], the EC50 is 0.01 µM in experiment [1], 30.5 µM in experiment [2] and 0.533 µM in experiment [3].
For `Nc1nc(Nc2cc(Cl)c(-c3ccc(NC(=O)CCCC[C@@H]4SC[C@@H]5NC(=O)N[C@@H]54)cc3)c(Cl)c2)n[nH]1` [Compound 39, 5-((3aS,4S,6aR)-2-Oxo-hexaneahydro-thieno[3,4-d]imidazol-4-yl)-pentanoic acid [4′-(5-amino-1H-[1,2,4]triazol-3-ylamino)-2′,6′-dichloro-biphenyl-4-yl]-amide] the same measures were 0.002 µM, greater than 10 µM and 0.09 µM.
Turning to `CNC(=O)c1cccc(-c2c(Cl)cc(Nc3n[nH]c(N)n3)cc2Cl)c1` [Compound 117, 4′-(5-Amino-1H-[1,2,4]triazol-3-ylamino)-2′,6′-dichloro-biphenyl-3-carboxylic acid methylamide], the values for the EC50 in experiment [1], in experiment [2] and in experiment [3] were 0.011 µM, 26.1 µM and 0.218 µM, respectively.
On the same counts, the results for `Nc1nc(Nc2cc(Cl)c(-c3ccc(S(=O)(=O)N[C@H]4CC[C@H](O)CC4)cc3)c(C(F)(F)F)c2)n[nH]1` [Compound 184, 4′-(5-amino-1H-1,2,4-triazol-3-ylamino)-2′-chloro-N-(trans-4-hydroxycyclohexyl)-6′-(trifluoromethyl)biphenyl-4-sulfonamide] are 0.028 µM, greater than 10 µM and 0.05 µM.
`COc1ccc(-c2c(Cl)cc(Nc3n[nH]c(N)n3)cc2C(F)(F)F)cc1S(=O)(=O)N1CCN(C(=O)OC(C)(C)C)CC1` [Compound 166, tert-butyl 4-(4′-(5-amino-1H-1,2,4-triazol-3-ylamino)-2′-chloro-4-methoxy-6′-(trifluoromethyl)biphenyl-3-ylsulfonyl)piperazine-1-carboxylate]: the concentration giving a half-maximal response (EC50) is 0.003 µM in experiment [1], greater than 10 µM in experiment [2] and 0.005 µM in experiment [3].
For `Nc1nc(Nc2cc(Cl)c(-c3cccc4ccccc34)c(Cl)c2)n[nH]1` [Compound 95, N-3-(3,5-Dichloro-4-naphthalen-1-yl-phenyl)-1H-[1,2,4]triazole-3,5-diamine] the same measures were 0.028 µM, 24.1 µM and 0.229 µM.
For `Nc1nc(Nc2cc(Cl)c(-c3ccc(F)cc3)c(Cl)c2)n[nH]1` [Compound 286, N3-(2,6-dichloro-4′-fluorobiphenyl-4-yl)-1H-1,2,4-triazole-3,5-diamine] the same measures were 0.018 µM, 13.6 µM and 0.64 µM.
On the same counts, the results for `COc1ccc(-c2c(Cl)cc(Nc3n[nH]c(N)n3)cc2C(F)(F)F)cc1S(=O)(=O)NC(C)(C)CO` [Compound 218, 4′-(5-Amino-1H-[1,2,4]triazol-3-ylamino)-6′-chloro-4-methoxy-2′-trifluoromethyl-biphenyl-3-sulfonic acid (2-hydroxy-1,1-dimethyl-ethyl)-amide] are 0.003 µM, 20.3 µM and 0.005 µM.
With `N#Cc1cc(-c2c(Cl)cc(Nc3n[nH]c(N)n3)cc2Cl)ccc1Cl` [Compound 105, 4′-(5-Amino-1H-[1,2,4]triazol-3-ylamino)-4,2′,6′-trichloro-biphenyl-3-carbonitrile], the EC50 was 0.039 µM in experiment [1], 16.8 µM in experiment [2] and 0.472 µM in experiment [3].
For `Nc1nc(Nc2cc(Cl)c(-c3cccc(Cl)c3)c(Cl)c2)n[nH]1` [Compound 92, N3-(2,3′,6-Trichlorobiphenyl-4-yl)-1H-1,2,4-triazole-3,5-diamine] the same measures were 0.034 µM, 35.5 µM and 0.57 µM.
On the same counts, the results for `Nc1nc(Nc2cc(Cl)c(-c3ccc(Cl)cc3)c(Cl)c2)n[nH]1` [Compound 96, N-3-(2,6,4′-Trichloro-biphenyl-4-yl)-1H-[1,2,4]triazole-3,5-diamine] are 0.009 µM, 4.27 µM and 0.927 µM.
For the molecule `CN(C)C(=O)c1cccc(-c2c(Cl)cc(Nc3n[nH]c(N)n3)cc2Cl)c1` [Compound 115, 4′-(5-Amino-1H-[1,2,4]triazol-3-ylamino)-2′,6′-dichloro-biphenyl-3-carboxylic acid dimethylamide], the EC50 in experiment [1] worked out at 0.007 µM; in experiment [2] it was 34.8 µM; in experiment [3], 0.107 µM.
For `CS(=O)(=O)c1cccc(-c2c(Cl)cc(Nc3n[nH]c(N)n3)cc2Cl)c1` [Compound 114, N-3-(2,6-Dichloro-3′-methanesulfonyl-biphenyl-4-yl)-1H-[1,2,4]triazole-3,5-diamine] the same measures were 0.01 µM, 18.2 µM and 0.069 µM.
On the same counts, the results for `COc1ccc(-c2c(Cl)cc(Nc3n[nH]c(N)n3)cc2C(F)(F)F)cc1S(=O)(=O)N1CCOCC1` [Compound 177, N3-(2-chloro-4′-methoxy-3′-(morpholinosulfonyl)-6-(trifluoromethyl)biphenyl-4-yl)-1H-1,2,4-triazole-3,5-diamine] are 0.003 µM, 23.4 µM and 0.018 µM.
On the same counts, the results for `N#Cc1cccc(-c2c(Cl)cc(Nc3n[nH]c(N)n3)cc2Cl)c1` [Compound 103, 4′-(5-Amino-1H-[1,2,4]triazol-3-ylamino)-2′,6′-dichloro-biphenyl-3-carbonitrile] are 0.025 µM, 13.3 µM and 0.269 µM.
On to `NC(=O)c1ccc(-c2c(Cl)cc(Nc3n[nH]c(N)n3)cc2Cl)cc1` [Compound 159, 4′-(5-amino-1H-1,2,4-triazol-3-ylamino)-2′,6′-dichlorobiphenyl-4-carboxamide], for which the EC50 was determined as 0.005 µM in experiment [1], 4.62 µM in experiment [2] and 0.164 µM in experiment [3].
For the molecule `CC(C)S(=O)(=O)c1ccc(-c2c(Cl)cc(Nc3n[nH]c(N)n3)cc2Cl)cc1` [Compound 122, N-3-[2,6-Dichloro-4′-(propane-2-sulfonyl)-biphenyl-4-yl]-1H-[1,2,4]triazole-3,5-diamine], the half-maximal effective concentration (EC50) is 0.004 µM in experiment [1], 12.1 µM in experiment [2] and 0.024 µM in experiment [3].
Take `CS(=O)(=O)Nc1ccc(-c2c(Cl)cc(Nc3n[nH]c(N)n3)cc2Cl)cc1` [Compound 111, N-[4′-(5-Amino-1H-[1,2,4]triazol-3-ylamino)-2′,6′-dichloro-biphenyl-4-yl]-methanesulfonamide]: the EC50 in experiment [1] stood at 0.003 µM; in experiment [2], 7.53 µM; in experiment [3], 0.039 µM.
On the same counts, the results for `CNS(=O)(=O)c1ccc(-c2c(Cl)cc(Nc3n[nH]c(N)n3)cc2Cl)cc1` [Compound 118, 4′-(5-Amino-1H-[1,2,4]triazol-3-ylamino)-2′,6′-dichloro-biphenyl-4-sulfonic acid methylamide] are 0.004 µM, 4.24 µM and 0.013 µM.
For `N#Cc1ccccc1-c1c(Cl)cc(Nc2n[nH]c(N)n2)cc1Cl` [Compound 104, 4′-(5-Amino-1H-[1,2,4]triazol-3-ylamino)-2′,6′-dichloro-biphenyl-2-carbonitrile] the same measures were 0.072 µM, 17.8 µM and 1.28 µM.
